Results published in patent publication US4324894A, “Aminoisoquinoline derivatives” (Egyt Gyogyszervegyeszeti Gyar, priority 1979, dated 1982).

Assays:
Format in all cases: in vivo
[1] = Acute toxicity on mice, oral; conditions: mouse, in vivo, po, mice weighing 18 to 22 g, orally
Method: (§1) The acute toxicity of the aminoisoquinoline derivatives of the formula (I) were determined on mice weighing 18 to 22 g. The compounds were administered orally. The LD50 values are summarized in Table I. Toxicity data for meprobamate [2-methyl-2-propylpropane-1,3-dioldicarbamate] and phenylbutazon [4-butyl-1,2-diphenylpyrazolidine-3,5-dione] used as reference substances in the pharmacological tests are also given in Table I.

[2] = test system: narcosis developed with hexobarbital; experiment: Potentiation of the narcosis developed with hexobarbital; conditions: mice; for ED50: Mus musculus, po; for Therapeutic index: p.o., corresponds to LD50/ED50
Method: The narcosis potentiating effects of the novel compounds having the formula (I) were studied by the method of Kaergaard and al., Arch. Int. […] The compounds studied were administered orally to groups of mice consisting of 6 animals each. To the control group, 20 ml/kg of 0.9 percent sodium chloride solution was orally administered. Then, the animals were treated with an intravenous dosage of 40 mg/kg of hexobarbital/5-(1-cyclohexenyl)-1,5-dimethylbarbituric acid/. According to our evaluation method, a 150 percent prolongation of sleeping period in relation to the control group was regarded as a positive response.
The number of animals with positive responses was related to the total number of animals treated.

[3] = test system: mice; experiment: Acute toxicity on mice, oral; conditions: mice weighing 18 to 22 g, orally
Method: as §1

[4] = orally, hexobarbital 40 mg/kg intravenous, positive response = 150 percent prolongation of sleeping period in relation to control

Nc1cc2ccccc2c(N2CCN(c3ccccn3)CC2)n1 [Example 6, 1-/4'-(2"-pyridyl)-piperazin-1'-yl/-3-aminoisoquinoline]
LD50 [1]: 2000 mg/kg | ED50 [2, 4]: 140 mg/kg | Therapeutic index [2]: 14.3

Cc1c(N)nc(N2CCOCC2)c2ccccc12 [Example 1, 1-morpholinyl-3-amino-4-methylisoquinoline]
LD50 [1]: 2000 mg/kg | ED50 [2, 4]: 100 mg/kg | Therapeutic index [2]: 20

Nc1cc2ccccc2c(N2CCOCC2)n1 [Example 4, 1-morpholinyl-3-aminoisoquinoline]
LD50 [1]: > 2000 mg/kg

CCCC(C)(COC(N)=O)COC(N)=O [Meprobamate, 2-methyl-2-propylpropane-1,3-dioldicarbamate, reference compound]
ED50 [2, 4]: 260 mg/kg | Therapeutic index [2]: 4.2

Cc1c(N)nc(N2CCN(c3ccccn3)CC2)c2ccccc12 [Example 3, 1-/4'-(2"-pyridyl)-1'-piperazinyl/-3-amino-4-methylisoquinoline bis/ethanesulfonate/]
LD50 p.o. [3]: 2000 mg/kg | ED50 p.o. [2, 4]: 140 mg/kg | Therapeutic index [2]: 14.3

Nc1cc2ccccc2c(N2CCOCC2)n1 [Example 5, 1-morpholinyl-3-aminoisoquinoline ethanesulfonate]
LD50 p.o. [3]: 2000 mg/kg

Cc1c(N)nc(N2CCN(c3ccccn3)CC2)c2ccccc12 [Example 2, 1-/4'-(2"-pyridyl)-1'-piperazinyl/-3-amino-4-methylisoquinoline]
LD50 [1]: 2000 mg/kg | ED50 [2, 4]: 74 mg/kg | Therapeutic index [2]: 27
